Measurements from patent US20100041089A1, “IMPROVED METHOD FOR DETECTING CHEMICAL […]” (priority 2006, published 2010).

System: yeast genes (expressed mRNA)
Test: DNA chip measurement of expressed mRNA of yeast genes after culture with a toxic chemical substance
Format: cell-based, Saccharomyces cerevisiae S288C
Conditions: for level of expressed mRNA in the presence of chemical substance / level in the absence of chemical substance: cultured two hours with the chemical substance; for The level of expressed mRNA in the presence of chemical substance/The level of expressed mRNA in the absence of chemical substance: cultured two hours with substance
Procedure: Yeast (Saccharomyces cerevisiae S288C (a SUC2mal mel gap2 CUP1)) were cultured at 25° C. on YPD medium (yeast extract 1%, polypeptone 2%, glucose 2%). One of toxic chemical substances was added to the cell at logarithmic growth phase, and the cell was further cultured for two hours. Cell was cultured without any chemical substance in the same condition, and was used as a control. Concentrations of the chemical substances were defined to inhibit the growth of the yeast but not lead to death.
After the completion of cultivation, the culture was centrifuged to collect the cells. To the cells, sodium acetate buffer (50 mM sodium acetate, 10 mM EDTA, 1% SDS) was added, and the mixture was shaken at 65° C. for five minutes, followed by returning to room temperature, and obtaining the supernatant, which procedure was repeated two times. To the supernatant, ½ amount of a solution of phenol/chloroform (1:1) was added, and the mixture was centrifuged to give a supernatant, an equal amount of chloroform was added, and the mixture was centrifuged to give a supernatant. To the supernatant, an equal amount of isopropanol containing 0.3 M sodium acetate was added, and the mixture was allowed to stand at room temperature for 30 minutes, after which the mixture was centrifuged to give sediment of the whole RNAs. Seventy % ethanol was added to the sediment, and the mixture was again centrifuged to give sediment, which was then dried and dissolved in water. mRNA was isolated from the whole RNAs as followings. In view of the fact that a poly A chain is attached to the 3′ terminus of mRNA, a polynucleotide having a poly T structure which was immobilized on the surface of latex beads was used to trap the mRNA, and then the mRNA was washed and eluted with spine column (Oligotex-dT30<Super>mRNA Purification Kit, Takara). Reverse transcription of the mRNA was conducted with a reverse transcriptase (Super Script II Reverse Transcriptase; catalogue No. 18064-014, GibcoBRL) using fluorescence-labeled nucleotides to give cDNAs that were introduced with Cy3-dUTP or Cy5-dUTP during the reverse transcription.
The labeled cDNAs were dissolved in TE buffer (10 mM Tris-HCl/1 mM EDTA, pH 8.0), and the solution was dropped on the DNA chip containing the whole genes of yeast (DNA Chip Research Inc. Japan) so that the cDNAs were hybridized on the DNA chip at 65° C. for over 12 hours. The fluoresces intensity of the DNA chip was read with a scanner, and the ratio relative to the fluorescence intensity resulting from the absence of chemical substance was estimated as the following, which is shown in Tables 1 to 9.
In the Tables, “Intensity” indicated in the rightmost column is a value of the level of expressed mRNA of each gene in control cells as divided by the average level of the expressions of the whole genes. A gene of which mRNA level is lower in control, and is higher in cases of addition of chemical substance, is especially useful in the detection of toxic substances.
Here, when a ratio of an amount of mRNA expressed in the presence of the chemical substance to an amount of mRNA expressed in the absence of the chemical substance is two or more, then it is considered significant.

Substance: Na2As [(1)]
- level of expressed mRNA in the presence of chemical substance / level in the absence of chemical substance (yeast gene YDR133C): 0.9
- level of expressed mRNA in the presence of chemical substance / level in the absence of chemical substance (yeast gene YDR250C): 1.9
- level of expressed mRNA in the presence of chemical substance / level in the absence of chemical substance (yeast gene YDR278C): 1.0
- level of expressed mRNA in the presence of chemical substance / level in the absence of chemical substance (yeast gene YDR281C): 2.1
- The level of expressed mRNA in the presence of chemical substance/The level of expressed mRNA in the absence of chemical substance (yeast gene YDR330W): 0.8
- level of expressed mRNA in the presence of chemical substance / level in the absence of chemical substance (yeast gene YDR366C): 0.9
- The level of expressed mRNA in the presence of chemical substance/The level of expressed mRNA in the absence of chemical substance (yeast gene YDR411C): 0.9
- The level of expressed mRNA in the presence of chemical substance/The level of expressed mRNA in the absence of chemical substance (yeast gene YDR511W): 1.3
- The level of expressed mRNA in the presence of chemical substance/The level of expressed mRNA in the absence of chemical substance (yeast gene YDR545W): 0.6
- The level of expressed mRNA in the presence of chemical substance/The level of expressed mRNA in the absence of chemical substance (yeast gene YEL001C): 1.0
- The level of expressed mRNA in the presence of chemical substance/The level of expressed mRNA in the absence of chemical substance (yeast gene YER004W): 1.0
- The level of expressed mRNA in the presence of chemical substance/The level of expressed mRNA in the absence of chemical substance (yeast gene YER035W): 1.4
- The level of expressed mRNA in the presence of chemical substance/The level of expressed mRNA in the absence of chemical substance (yeast gene YER079W): 1.1
- The level of expressed mRNA in the presence of chemical substance/The level of expressed mRNA in the absence of chemical substance (yeast gene YER106W): 1.3
- The level of expressed mRNA in the presence of chemical substance/The level of expressed mRNA in the absence of chemical substance (yeast gene YER158C): 1.2
- The level of expressed mRNA in the presence of chemical substance/The level of expressed mRNA in the absence of chemical substance (yeast gene YER163C): 1.1
- The level of expressed mRNA in the presence of chemical substance/The level of expressed mRNA in the absence of chemical substance (yeast gene YER175C): 0.9
- The level of expressed mRNA in the presence of chemical substance/The level of expressed mRNA in the absence of chemical substance (yeast gene YFL006W): 0.8
- The level of expressed mRNA in the presence of chemical substance/The level of expressed mRNA in the absence of chemical substance (yeast gene YFL010C): 1.0
- The level of expressed mRNA in the presence of chemical substance/The level of expressed mRNA in the absence of chemical substance (yeast gene YFL024C): 1.0
- The level of expressed mRNA in the presence of chemical substance/The level of expressed mRNA in the absence of chemical substance (yeast gene YFL032W): 0.4
- level of expressed mRNA in the presence of chemical substance / level in the absence of chemical substance (yeast gene YFR026C): 0.9
- The level of expressed mRNA in the presence of chemical substance/The level of expressed mRNA in the absence of chemical substance (yeast gene YGL037C): 1.5
- The level of expressed mRNA in the presence of chemical substance/The level of expressed mRNA in the absence of chemical substance (yeast gene YGL047W): 1.0
- The level of expressed mRNA in the presence of chemical substance/The level of expressed mRNA in the absence of chemical substance (yeast gene YGL053W): 1.5
- level of expressed mRNA in the presence of chemical substance / level in the absence of chemical substance (yeast gene YGL088W): 0.9
- The level of expressed mRNA in the presence of chemical substance/The level of expressed mRNA in the absence of chemical substance (yeast gene YGL121C): 2.6
- The level of expressed mRNA in the presence of chemical substance/The level of expressed mRNA in the absence of chemical substance (yeast gene YGL199C): 1.1
- level of expressed mRNA in the presence of chemical substance / level in the absence of chemical substance (yeast gene YGR038W): 0.9
- The level of expressed mRNA in the presence of chemical substance/The level of expressed mRNA in the absence of chemical substance (yeast gene YGR101W): 1.0
- The level of expressed mRNA in the presence of chemical substance/The level of expressed mRNA in the absence of chemical substance (yeast gene YGR110W): 1.6
- The level of expressed mRNA in the presence of chemical substance/The level of expressed mRNA in the absence of chemical substance (yeast gene YGR130C): 0.9
- level of expressed mRNA in the presence of chemical substance / level in the absence of chemical substance (yeast gene YGR139W): 1.3
- The level of expressed mRNA in the presence of chemical substance/The level of expressed mRNA in the absence of chemical substance (yeast gene YGR154C): 1.8
- The level of expressed mRNA in the presence of chemical substance/The level of expressed mRNA in the absence of chemical substance (yeast gene YGR221C): 0.9
- level of expressed mRNA in the presence of chemical substance / level in the absence of chemical substance (yeast gene YGR243W): 1.4
- level of expressed mRNA in the presence of chemical substance / level in the absence of chemical substance (yeast gene YGR293C): 0.5
- level of expressed mRNA in the presence of chemical substance / level in the absence of chemical substance (yeast gene YHL006C): 0.7
- level of expressed mRNA in the presence of chemical substance / level in the absence of chemical substance (yeast gene YHR095W): 1.1
- level of expressed mRNA in the presence of chemical substance / level in the absence of chemical substance (yeast gene YHR105W): 0.9
- The level of expressed mRNA in the presence of chemical substance/The level of expressed mRNA in the absence of chemical substance (yeast gene YHR138C): 2.8
- level of expressed mRNA in the presence of chemical substance / level in the absence of chemical substance (yeast gene YHR181W): 0.9
- The level of expressed mRNA in the presence of chemical substance/The level of expressed mRNA in the absence of chemical substance (yeast gene YHR199C): 1.9
- The level of expressed mRNA in the presence of chemical substance/The level of expressed mRNA in the absence of chemical substance (yeast gene YIL023C): 1.1
- The level of expressed mRNA in the presence of chemical substance/The level of expressed mRNA in the absence of chemical substance (yeast gene YIL041W): 1.0
- The level of expressed mRNA in the presence of chemical substance/The level of expressed mRNA in the absence of chemical substance (yeast gene YIL087C): 1.3
- level of expressed mRNA in the presence of chemical substance / level in the absence of chemical substance (yeast gene YIL127C): 1.1
- level of expressed mRNA in the presence of chemical substance / level in the absence of chemical substance (yeast gene YJL017W): 1.1
- level of expressed mRNA in the presence of chemical substance / level in the absence of chemical substance (yeast gene YJL037W): 1.8
- The level of expressed mRNA in the presence of chemical substance/The level of expressed mRNA in the absence of chemical substance (yeast gene YJL057C): 1.5
- The level of expressed mRNA in the presence of chemical substance/The level of expressed mRNA in the absence of chemical substance (yeast gene YJL066C): 0.9
- The level of expressed mRNA in the presence of chemical substance/The level of expressed mRNA in the absence of chemical substance (yeast gene YJL082W): 1.4
- level of expressed mRNA in the presence of chemical substance / level in the absence of chemical substance (yeast gene YJL097W): 1.0
